Several values for one entry are separate records, joined by “and”; a condition that tells them apart may be missing. Equal values may be shown once. Where a SMILES comes first, the peptide text is derived from it.
Experiments:
[1] = precipitation in the aqueous solution of the binding assay; assay type: physicochemical; conditions: aqueous solution of the MHC class II binding assay, read-out: Precipitation in assay: lowest concentration at which an insoluble white precipitate is seen
Description: This is a characteristic of promiscuous HLA-DRB1* binders.

[2] = solubility pre-screen in an aqueous, acidic milieu; assay type: physicochemical
[3] = biological target: T1, human MHC class II allotype HLA-DRB1*1101 (human); test: competitive MHC class II binding assay; competitor control peptide influenza haemagglutinin 307-319;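 also: each test peptide was scored on how well it displaces the known control binder from each human MHC class II allotype studied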
T1 construct: Source and construct of the MHC protein in the assay are not described

[4] = biological target: T2, human MHC class II allotype HLA-DRB1*0701 (human); test: as above
T2 construct: Source and construct of the MHC protein in the assay are not described

Molecule	solubility [1]	Solubility test [2]	ratio of its own IC50 to that of the control peptide [3]	ratio of its own IC50 to that of the control peptide [4]
CC[C@H](C)[C@H](NC(=O)[C@@H](NC(=O)[C@H](C)NC(=O)[C@@H](NC(=O)[C@H](C)NC(=O)[C@H](CO)NC(=O)[C@H](Cc1c[nH]cn1)NC(=O)[C@@H](NC(=O)[C@H](CCC(N)=O)NC(=O)[C@H](C)NC(=O)[C@H](CC(C)C)NC(=O)[C@H](C)NC(=O)[C@H](CCC(=O)O)NC(=O)[C@@H](N)CCCNC(=N)N)[C@@H](C)O)[C@@H](C)CC)C(C)C)C(=O)O [HDM09A] (H-REALAQTHSAIAVI-OH; N-terminus and C-terminus assumed)	1000 µM and 2900 µg/mL	YES	–	–
CC[C@H](C)[C@H](NC(=O)[C@H](CCC(=O)O)NC(=O)[C@@H](NC(=O)[C@H](CCCCN)NC(=O)[C@H](C)N)[C@@H](C)CC)C(=O)N[C@@H](CCCCN)C(=O)N[C@@H](C)C(=O)N[C@@H](CO)C(=O)N[C@@H](CC(C)C)C(=O)N[C@@H](CC(=O)O)C(=O)NCC(=O)N[C@@H](CC(C)C)C(=O)N[C@@H](CCC(=O)O)C(=O)O [HDM27] (H-AKIEIKASLDGLE-OH)	1000 µM and 1400 µg/mL	YES	–	–
CC(C)C[C@H](NC(=O)[C@H](CCC(N)=O)NC(=O)[C@H](Cc1ccccc1)NC(=O)[C@@H]1CCCN1C(=O)[C@@H](N)CCCCN)C(=O)N[C@@H](CCC(=O)O)C(=O)N[C@@H](C)C(=O)N[C@H](C(=O)N[C@@H](Cc1ccccc1)C(=O)N[C@@H](CCC(=O)O)C(=O)N[C@@H](C)C(=O)N[C@@H](CC(N)=O)C(=O)N[C@@H](CCC(N)=O)C(=O)N[C@@H](CC(N)=O)C(=O)N[C@H](C(=O)N[C@@H](CCCCN)C(=O)O)[C@@H](C)O)C(C)C [HDM21A] (H-KPFQLEAVFEANQNTK-OH; N-terminus and C-terminus assumed)	5000 µM and 9300 µg/mL	YES	–	–
CC[C@H](C)[C@H](NC(=O)[C@H](C)NC(=O)[C@H](C)NC(=O)[C@@H](NC(=O)[C@H](C)NC(=O)[C@H](CCC(=O)O)NC(=O)[C@H](CC(=O)O)NC(=O)[C@@H](NC(=O)[C@H](C)NC(=O)[C@@H](N)CCCCN)C(C)C)C(C)C)C(=O)N[C@@H](CCC(=O)O)C(=O)N[C@@H](CCCCN)C(=O)N[C@@H](CO)C(=O)O [HDM28] (H-KAVDEAVAAIEKS-OH)	1000 µM and 1300 µg/mL	YES	–	–
CC[C@H](C)[C@H](NC(=O)[C@H](C)NC(=O)[C@H](CS)NC(=O)[C@H](C)NC(=O)[C@H](CC(C)C)NC(=O)[C@@H](NC(=O)CNC(=O)[C@@H](N)CC(=O)O)C(C)C)C(=O)N[C@@H](C)C(=O)N[C@H](C(=O)N[C@@H](Cc1c[nH]cn1)C(=O)N[C@@H](C)C(=O)N[C@@H](CCCCN)C(=O)N[C@H](C(=O)N[C@@H](CCCNC(=N)N)C(=O)O)[C@@H](C)CC)[C@@H](C)O [HDM26A] (H-DGVLACAIATHAKIR-OH; N-terminus and C-terminus assumed)	1000 µM and 1500 µg/mL	–	–	–
CC[C@H](C)[C@H](NC(=O)CNC(=O)[C@@H](NC(=O)[C@@H](N)Cc1c[nH]cn1)[C@@H](C)CC)C(=O)N[C@H](C(=O)N[C@@H](CC(=O)O)C(=O)N[C@@H](CC(C)C)C(=O)N[C@@H](CCCCN)C(=O)NCC(=O)N[C@@H](CCC(=O)O)C(=O)N[C@@H](CC(C)C)C(=O)N[C@@H](CC(=O)O)C(=O)N[C@@H](CCSC)C(=O)N[C@@H](CCCNC(=N)N)C(=O)N[C@@H](CC(N)=O)C(=O)O)[C@@H](C)CC [HDM31A] (H-HIGIIDLKGELDMRN-OH)	1000 µM and 1700 µg/mL	YES	–	–
CC[C@H](C)[C@H](NC(=O)[C@H](C)NC(=O)[C@@H](N)[C@@H](C)O)C(=O)N[C@@H](Cc1ccccc1)C(=O)N[C@@H](CCC(N)=O)C(=O)N[C@@H](CC(=O)O)C(=O)N[C@H](C(=O)N[C@H](C(=O)N[C@@H](CCCNC(=N)N)C(=O)N[C@@H](C)C(=O)N[C@@H](CCC(=O)O)C(=O)N[C@@H](CCSC)C(=O)N[C@H](C(=O)N[C@@H](CCCCN)C(=O)O)[C@@H](C)O)C(C)C)[C@@H](C)O [HDM48] (H-TAIFQDTVRAEMTK-OH; N-terminus and C-terminus assumed)	1000 µM and 1600 µg/mL	YES	–	–
CC[C@H](C)[C@H](N)C(=O)NCC(=O)N[C@H](C(=O)N[C@H](C(=O)N[C@@H](CC(=O)O)C(=O)N[C@@H](CC(C)C)C(=O)N[C@@H](CCCCN)C(=O)NCC(=O)N[C@@H](CCC(=O)O)C(=O)N[C@@H](CC(C)C)C(=O)N[C@@H](CC(=O)O)C(=O)N[C@@H](CCSC)C(=O)N[C@@H](CCCNC(=N)N)C(=O)N[C@@H](CC(N)=O)C(=O)O)[C@@H](C)CC)[C@@H](C)CC [HDM31] (H-IGIIDLKGELDMRN-OH)	1000 µM and 1800 µg/mL	–	–	–
CSCC[C@H](NC(=O)[C@@H]1CCCN1C(=O)[C@H](CC(=O)O)NC(=O)[C@H](Cc1ccccc1)NC(=O)[C@@H](NC(=O)[C@H](CCC(=O)O)NC(=O)[C@H](CO)NC(=O)[C@@H](N)CCCCN)[C@@H](C)O)C(=O)N[C@@H](CCCCN)C(=O)N[C@H](C(=O)N1CCC[C@H]1C(=O)N[C@@H](CC(=O)O)C(=O)N[C@@H](Cc1c[nH]cn1)C(=O)N[C@@H](CO)C(=O)N[C@@H](CC(=O)O)C(=O)O)C(C)C [HDM29B] (H-KSETFDPMKVPDHSD-OH)	1000 µM and 1700 µg/mL	YES	–	–
CC[C@H](C)[C@H](N)C(=O)N[C@@H](CC(=O)O)C(=O)N[C@@H](CC(C)C)C(=O)N[C@@H](CCCCN)C(=O)NCC(=O)N[C@@H](CCC(=O)O)C(=O)N[C@@H](CC(C)C)C(=O)N[C@@H](CC(=O)O)C(=O)N[C@@H](CCSC)C(=O)N[C@@H](CCCNC(=N)N)C(=O)N[C@@H](CC(N)=O)C(=O)N[C@H](C(=O)N[C@@H](CCC(N)=O)C(=O)N[C@H](C(=O)N[C@@H](CCCNC(=N)N)C(=O)O)C(C)C)[C@@H](C)CC [HDM32A] (H-IDLKGELDMRNIQVR-OH)	5000 µM and 9000 µg/mL	YES	–	–
CC(C)C[C@H](NC(=O)[C@H](CCC(N)=O)NC(=O)[C@H](Cc1ccccc1)NC(=O)[C@@H]1CCCN1C(=O)[C@@H](N)CCCCN)C(=O)N[C@@H](CCC(=O)O)C(=O)N[C@@H](C)C(=O)N[C@H](C(=O)N[C@@H](Cc1ccccc1)C(=O)N[C@@H](CCC(=O)O)C(=O)N[C@@H](C)C(=O)N[C@@H](CC(N)=O)C(=O)N[C@@H](CCC(N)=O)C(=O)N[C@@H](CC(N)=O)C(=O)N[C@H](C(=O)O)[C@@H](C)O)C(C)C [HDM21] (H-KPFQLEAVFEANQNT-OH; N-terminus and C-terminus assumed)	200 µM and 300 µg/mL	YES	–	–
CC[C@H](C)[C@H](N)C(=O)N[C@@H](CC(=O)O)C(=O)N[C@@H](CC(C)C)C(=O)N[C@@H](CCCCN)C(=O)NCC(=O)N[C@@H](CCC(=O)O)C(=O)N[C@@H](CC(C)C)C(=O)N[C@@H](CC(=O)O)C(=O)N[C@@H](CCSC)C(=O)N[C@@H](CCCNC(=N)N)C(=O)N[C@@H](CC(N)=O)C(=O)N[C@H](C(=O)N[C@@H](CCC(N)=O)C(=O)O)[C@@H](C)CC [HDM32] (H-IDLKGELDMRNIQ-OH; N-terminus and C-terminus assumed)	5000 µM and 7700 µg/mL	YES	–	–
CC(C)C[C@H](NC(=O)[C@H](CCC(N)=O)NC(=O)[C@H](Cc1ccccc1)NC(=O)[C@@H]1CCCN1C(=O)[C@H](CCCCN)NC(=O)CNC(=O)[C@@H](N)CCCNC(=N)N)C(=O)N[C@@H](CCC(=O)O)C(=O)N[C@@H](C)C(=O)N[C@H](C(=O)N[C@@H](Cc1ccccc1)C(=O)N[C@@H](CCC(=O)O)C(=O)N[C@@H](C)C(=O)N[C@@H](CC(N)=O)C(=O)N[C@@H](CCC(N)=O)C(=O)N[C@@H](CC(N)=O)C(=O)N[C@H](C(=O)O)[C@@H](C)O)C(C)C [HDM21B] (H-RGKPFQLEAVFEANQNT-OH; N-terminus and C-terminus assumed)	1000 µM and 1980 µg/mL	YES	–	–
CSCC[C@H](NC(=O)[C@@H]1CCCN1C(=O)[C@H](CC(=O)O)NC(=O)[C@H](Cc1ccccc1)NC(=O)[C@@H](NC(=O)[C@@H](N)CCC(=O)O)[C@@H](C)O)C(=O)N[C@@H](CCCCN)C(=O)N[C@H](C(=O)N1CCC[C@H]1C(=O)N[C@@H](CC(=O)O)C(=O)N[C@@H](Cc1c[nH]cn1)C(=O)N[C@@H](CO)C(=O)N[C@@H](CC(=O)O)C(=O)O)C(C)C [HDM29] (H-ETFDPMKVPDHSD-OH)	–	YES	–	–
CC[C@H](C)[C@H](NC(=O)[C@@H]1CCCN1C(=O)[C@@H](NC(=O)[C@@H](NC(=O)[C@@H](NC(=O)[C@@H](N)CCCNC(=N)N)[C@@H](C)O)C(C)C)[C@@H](C)O)C(=O)N[C@@H](CCCNC(=N)N)C(=O)N[C@@H](CCSC)C(=O)N[C@@H](CCC(N)=O)C(=O)NCC(=O)NCC(=O)N[C@@H](CS)C(=O)NCC(=O)O [HDM02] (H-RTVTPIRMQGGCG-OH; N-terminus and C-terminus assumed)	–	YES	–	–
CC[C@H](C)[C@H](NC(=O)[C@H](CCCCN)NC(=O)[C@H](CC(N)=O)NC(=O)[C@@H](NC(=O)[C@H](CC(N)=O)NC(=O)[C@@H]1CCCN1)C(C)C)C(=O)N[C@@H](CCCNC(=N)N)C(=O)N[C@@H](CCC(=O)O)C(=O)N[C@@H](C)C(=O)N[C@@H](CC(C)C)C(=O)N[C@@H](C)C(=O)N[C@@H](CCC(N)=O)C(=O)N[C@H](C(=O)O)[C@@H](C)O [HDM07] (H-PNVNKIREALAQT-OH)	–	YES	–	–
CC[C@H](C)[C@H](NC(=O)CNC(=O)[C@@H](NC(=O)[C@H](Cc1c[nH]cn1)NC(=O)[C@H](CCCNC(=N)N)NC(=O)[C@H](CCC(=O)O)NC(=O)[C@H](Cc1ccccc1)NC(=O)[C@H](CCCCN)NC(=O)[C@@H](N)CC(=O)O)[C@@H](C)CC)C(=O)N[C@H](C(=O)N[C@@H](CC(=O)O)C(=O)N[C@@H](CC(C)C)C(=O)N[C@@H](CCCCN)C(=O)O)[C@@H](C)CC [HDM30] (H-DKFERHIGIIDLK-OH; N-terminus and C-terminus assumed)	5000 µM and 7900 µg/mL	YES	–	–
RGLKQMKRVGDAN (Synthetic peptide, 84.0% purity) [HDM35]	–	–	1.26	–
DKFERHIGIIDLK (Synthetic peptide, 81.4% purity) [HDM30]	–	–	–	6.2
